Measured values published in PubChem BioAssay AID330 (DTP/NCI, 2004).
“And” between values parts separate entries of the source, which are not always exact repeats. Equal entries are not always repeated. Toxic doses and inconclusive results are not listed.

System: P388 leukemia ip, CD2F1 mice, survival T/C
Test: NCI In Vivo Anticancer Drug Screen. Data for tumor model P388 Leukemia (intraperitoneal) in CD2F1 (CDF1) mice
Conditions: endpoint: median survival time, higher = longer survival
Procedure, shortened: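 Mice carrying the transplanted tumor received test compound or vehicle. Survival was recorded in each group, and the value is the treated-group measurement divided by that of the vehicle-treated control group.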

[1] = dose: 50.0 mg/kg/injection, schedule: Q01DX005 (ip), vehicle: saline with Tween-80
[2] = dose: 200.0 mg/kg/injection, schedule: Q01DX005 (ip), vehicle: saline with Tween-80
[3] = dose: 100.0 mg/kg/injection, schedule: Q04DX002 (ip), vehicle: saline
[4] = dose: 12.5 mg/kg/injection, schedule: Q01DX005 (ip), vehicle: Klucel (hydroxypropylcellulose) (HPC)
[5] = dose: 25.0 mg/kg/injection, schedule: Q01DX005 (ip), vehicle: Klucel (hydroxypropylcellulose) (HPC)
[6] = dose: 100.0 mg/kg/injection, schedule: Q01DX005 (ip), vehicle: saline with Tween-80
[7] = dose: 60.0 mg/kg/injection, schedule: Q01DX005 (ip), vehicle: saline
[8] = dose: 120.0 mg/kg/injection, schedule: Q01DX005 (ip), vehicle: saline
[9] = dose: 50.0 mg/kg/injection, schedule: Q01DX005 (ip), vehicle: Klucel (hydroxypropylcellulose) (HPC)
[10] = dose: 100.0 mg/kg/injection, schedule: Q01DX005 (ip), vehicle: Klucel (hydroxypropylcellulose) (HPC)
[11] = dose: 200.0 mg/kg/injection, schedule: Q01DX005 (ip), vehicle: Klucel (hydroxypropylcellulose) (HPC)
[12] = dose: 60.0 mg/kg/injection, schedule: Q01DX005 (ip), vehicle: saline with Tween-80
[13] = dose: 120.0 mg/kg/injection, schedule: Q01DX005 (ip), vehicle: saline with Tween-80
[14] = dose: 240.0 mg/kg/injection, schedule: Q01DX005 (ip), vehicle: saline with Tween-80
[15] = dose: 100.0 mg/kg/injection, schedule: Q04DX003 (ip), vehicle: saline sonified
[16] = dose: 200.0 mg/kg/injection, schedule: Q04DX003 (ip), vehicle: saline sonified

O=C(/C(=N/Nc1ccccc1)C(=S)Nc1ccccc1)c1ccccc1
T/C (dose: 3.13 mg/kg/injection, schedule: Q01DX005 (ip), vehicle: saline with Tween-80): 99 % of control | T/C (dose: 6.25 mg/kg/injection, schedule: Q01DX005 (ip), vehicle: saline with Tween-80): 95 % of control | T/C (dose: 12.5 mg/kg/injection, schedule: Q01DX005 (ip), vehicle: saline with Tween-80): 91 % of control and 92 % of control | T/C (dose: 25.0 mg/kg/injection, schedule: Q01DX005 (ip), vehicle: saline with Tween-80): 90 % of control | T/C [1]: 89 % of control and 93 % of control | T/C [2]: 90 % of control

O=S1(N2CC2)=NP(N2CC2)(N2CC2)=NP(N2CC2)(N2CC2)=N1 (centres undefined)
T/C [3]: 168 % of control | T/C (dose: 150.0 mg/kg/injection, schedule: Q04DX002 (ip), vehicle: saline): 198 % of control

COc1cc2c(cc1OC)[C@@H]1C(=O)c3ccc4c(c3O[C@@H]1CO2)C[C@H](C(C)C)O4
T/C (dose: 6.25 mg/kg/injection, schedule: Q01DX005 (ip), vehicle: Klucel (hydroxypropylcellulose) (HPC)): 109 % of control | T/C [4]: 121 % of control and 123 % of control and 124 % of control | T/C [5]: 119 % of control

NC(=O)c1ccccc1N1CCCCC1
T/C [1]: 99 % of control | T/C [6]: 100 % of control | T/C [2]: 91 % of control

COC(=O)c1cc(=O)c2scc(C)[n+]2[nH]1
T/C [1]: 105 % of control | T/C [6]: 100 % of control | T/C [2]: 100 % of control

CC(C)=Cc1cc(-c2cc(C=C(C)C)nc(N)n2)nc(N)n1
T/C [7]: 97 % of control | T/C [8]: 94 % of control

NS(=O)(=O)c1cccc(NC(=S)Nc2ccccc2)c1
T/C (dose: 6.25 mg/kg/injection, schedule: Q01DX009 (ip), vehicle: saline): 103 % of control (2×) and 108 % of control | T/C (dose: 12.5 mg/kg/injection, schedule: Q01DX009 (ip), vehicle: saline): 101 % of control and 106 % of control | T/C (dose: 25.0 mg/kg/injection, schedule: Q01DX009 (ip), vehicle: saline): 99 % of control and 109 % of control and 94 % of control | T/C (dose: 100.0 mg/kg/injection, schedule: Q01DX009 (ip), vehicle: saline): 99 % of control and 92 % of control | T/C (dose: 200.0 mg/kg/injection, schedule: Q01DX009 (ip), vehicle: saline): 100 % of control and 110 % of control

O=C1Nc2ccccc2/C1=N/n1c(-c2ccccc2)nc2ccccc2c1=O
T/C [4]: 97 % of control | T/C [5]: 97 % of control | T/C [9]: 87 % of control | T/C [10]: 90 % of control | T/C [11]: 89 % of control

CCCCOP(O)(=S)OCCCC.[Eu]
T/C (dose: 100.0 mg/kg/injection, schedule: Q04DX002 (ip), vehicle: saline with Tween-80): 96 % of control | T/C (dose: 200.0 mg/kg/injection, schedule: Q04DX002 (ip), vehicle: saline with Tween-80): 91 % of control | T/C (dose: 400.0 mg/kg/injection, schedule: Q04DX002 (ip), vehicle: saline with Tween-80): 90 % of control

Cc1cc([O-])c([I+]c2ccccc2)c(=O)[nH]1
T/C [9]: 103 % of control | T/C [10]: 110 % of control | T/C [11]: 102 % of control

[CH3][Sb]([CH3])[O][Sb]([CH3])[CH3]
T/C [7]: 110 % of control | T/C [8]: 111 % of control | T/C (dose: 240.0 mg/kg/injection, schedule: Q01DX005 (ip), vehicle: saline): 107 % of control

Cn1c(=O)c2[nH]c(Cc3ccc4c(c3)OCO4)nc2n(C)c1=O
T/C (dose: 1.56 mg/kg/injection, schedule: Q01DX009 (ip), vehicle: Klucel (hydroxypropylcellulose) (HPC)): 98 % of control | T/C (dose: 3.13 mg/kg/injection, schedule: Q01DX009 (ip), vehicle: Klucel (hydroxypropylcellulose) (HPC)): 97 % of control | T/C (dose: 6.25 mg/kg/injection, schedule: Q01DX009 (ip), vehicle: Klucel (hydroxypropylcellulose) (HPC)): 95 % of control | T/C (dose: 12.5 mg/kg/injection, schedule: Q01DX009 (ip), vehicle: Klucel (hydroxypropylcellulose) (HPC)): 101 % of control | T/C (dose: 25.0 mg/kg/injection, schedule: Q01DX009 (ip), vehicle: Klucel (hydroxypropylcellulose) (HPC)): 104 % of control | T/C (dose: 50.0 mg/kg/injection, schedule: Q01DX009 (ip), vehicle: Klucel (hydroxypropylcellulose) (HPC)): 87 % of control | T/C (dose: 100.0 mg/kg/injection, schedule: Q01DX009 (ip), vehicle: Klucel (hydroxypropylcellulose) (HPC)): 107 % of control | T/C (dose: 200.0 mg/kg/injection, schedule: Q01DX009 (ip), vehicle: Klucel (hydroxypropylcellulose) (HPC)): 100 % of control

Cc1nc2c(cc1C#N)C(Nc1ccc(Cl)cc1)Oc1ccc([N+](=O)[O-])cc1-2 (centres undefined)
T/C [12]: 92 % of control | T/C [13]: 92 % of control | T/C [14]: 90 % of control

CC(=O)Nc1ccc(S(=O)(=O)Oc2noc3ccc(Br)cc23)cc1
T/C [9]: 98 % of control | T/C [10]: 97 % of control | T/C [11]: 90 % of control

c1ccc(-c2nnc3sc4ccccc4n23)cc1
T/C (dose: 60.0 mg/kg/injection, schedule: Q01DX005 (ip), vehicle: Klucel (hydroxypropylcellulose) (HPC)): 105 % of control | T/C (dose: 120.0 mg/kg/injection, schedule: Q01DX005 (ip), vehicle: Klucel (hydroxypropylcellulose) (HPC)): 96 % of control | T/C (dose: 240.0 mg/kg/injection, schedule: Q01DX005 (ip), vehicle: Klucel (hydroxypropylcellulose) (HPC)): 94 % of control

COC(=O)C(C)NC(=O)C(Cc1c[nH]c2ccccc12)NC(=O)OC(C)(C)C (centres undefined)
T/C (dose: 12.5 mg/kg/injection, schedule: Q01DX009 (ip), vehicle: other): 88 % of control | T/C (dose: 25.0 mg/kg/injection, schedule: Q01DX009 (ip), vehicle: other): 89 % of control | T/C (dose: 50.0 mg/kg/injection, schedule: Q01DX009 (ip), vehicle: other): 100 % of control | T/C (dose: 100.0 mg/kg/injection, schedule: Q01DX009 (ip), vehicle: other): 101 % of control | T/C (dose: 200.0 mg/kg/injection, schedule: Q01DX009 (ip), vehicle: other): 117 % of control

COC(=O)c1cc(=O)n(-c2ccccc2F)c(SC)n1
T/C (dose: 25.0 mg/kg/injection, schedule: Q04DX003 (ip), vehicle: Klucel (hydroxypropylcellulose) (HPC)): 105 % of control | T/C (dose: 50.0 mg/kg/injection, schedule: Q04DX003 (ip), vehicle: Klucel (hydroxypropylcellulose) (HPC)): 104 % of control | T/C (dose: 100.0 mg/kg/injection, schedule: Q04DX003 (ip), vehicle: Klucel (hydroxypropylcellulose) (HPC)): 106 % of control

COC(=O)CC(=O)c1ccc(OCCOc2ccc(C(C)(C)CC(C)(C)C)cc2)c([N+](=O)[O-])c1
T/C (dose: 50.0 mg/kg/injection, schedule: Q04DX003 (ip), vehicle: saline sonified): 100 % of control | T/C [15]: 100 % of control | T/C [16]: 104 % of control

COc1c2ccoc2nc2c(O)c3c(c(CC=C(C)C)c12)OCO3
T/C (dose: 1.5 mg/kg/injection, schedule: Q01DX005 (ip), vehicle: Klucel (hydroxypropylcellulose) (HPC)): 102 % of control | T/C (dose: 3.0 mg/kg/injection, schedule: Q01DX005 (ip), vehicle: Klucel (hydroxypropylcellulose) (HPC)): 104 % of control | T/C (dose: 6.0 mg/kg/injection, schedule: Q01DX005 (ip), vehicle: Klucel (hydroxypropylcellulose) (HPC)): 103 % of control | T/C (dose: 11.88 mg/kg/injection, schedule: Q01DX005 (ip), vehicle: Klucel (hydroxypropylcellulose) (HPC)): 86 % of control | T/C (dose: 12.0 mg/kg/injection, schedule: Q01DX005 (ip), vehicle: Klucel (hydroxypropylcellulose) (HPC)): 96 % of control | T/C (dose: 47.5 mg/kg/injection, schedule: Q01DX005 (ip), vehicle: Klucel (hydroxypropylcellulose) (HPC)): 86 % of control

OCc1ccc(CO)cc1
T/C [15]: 104 % of control | T/C [16]: 100 % of control | T/C (dose: 400.0 mg/kg/injection, schedule: Q04DX003 (ip), vehicle: saline sonified): 100 % of control

O=C1OC(Cl)C(c2ccccc2)=C1c1ccccc1 (centres undefined)
T/C [3]: 96 % of control | T/C (dose: 200.0 mg/kg/injection, schedule: Q04DX002 (ip), vehicle: saline): 98 % of control | T/C (dose: 400.0 mg/kg/injection, schedule: Q04DX002 (ip), vehicle: saline): 105 % of control

CCOC(=O)c1ccc(N=Cc2cccc([N+](=O)[O-])c2)cc1
T/C [12]: 91 % of control | T/C [13]: 89 % of control | T/C [14]: 90 % of control

Cc1ccc2c(c1)NC(=S)N=S2(C)=O (centres undefined)
T/C (dose: 50.0 mg/kg/injection, schedule: Q01DX009 (ip), vehicle: saline with Tween-80): 95 % of control | T/C (dose: 100.0 mg/kg/injection, schedule: Q01DX009 (ip), vehicle: saline with Tween-80): 93 % of control | T/C (dose: 200.0 mg/kg/injection, schedule: Q01DX009 (ip), vehicle: saline with Tween-80): 102 % of control
